Source: US11453697B1, “Cyclic di-nucleotide compounds as sting agonists” (Merck Sharp & Dohme Corp., priority 2015, dated 2022)

Each molecule was assayed on IFN-β secretion in THP1 cells (assay: IFN-β secretion in THP1 cell culture (5 h)). Conditions: not given.
Type: cell-based, human
Description: The ability of compounds to stimulate the secretion of interferon-beta from THP1 cells was measured using a human IFN-β AlphaLISA kit (Perkin Elmer, Cat. No. AL265F). The basic protocol is as follows:
The cell viability and count was ascertained using a Beckman Coulter V-Cell XR cell counter. The cells suspension was centrifuged at 200×g for 5 min at RT. […] Subsequent liquid transfers were performed using either a Matrix electronic multichannel pipette or an Agilent Bravo Automated Liquid Handling Platform.
The assay was started by dispensing 40 μL of the previously prepared cell suspension into the wells of the plate containing compounds. After 5 h incubation at 37° C., 5% CO2 in a humidified atmosphere, the plate of cells and compounds was centrifuged at 200×g for 5 min at RT. […] To these supernatant-containing wells was added 10 μL of 5× Anti-Analyte Acceptor beads (50 μg/mL of AlphaLISA HiBlock Buffer) and incubated for 30 min at RT while shaking on an orbital plate shaker. To each well was added 10 μL of 5× Biotinylated Antibody Anti-analyte (5 nM in AlphaLISA HiBlock Buffer) and incubated on an orbital plate shaker for 60 min at RT or overnight at 4° C. To each well was added 25 μL of 2× SA-Donor beads (80 μg/mL in AlphaLISA HiBlock Buffer) and incubated for 30-45 min at RT in the dark while shaking on an orbital plate shaker. The plate was then read on a Perkin Elmer Envision (λex=680 nm, λem=[…]). The percent effect of the AlphaLISA signal at each compound concentration was calculated based on 30 uM cGAMP positive controls and 0.3% DMSO negative controls. The plot of percent effect versus the log of compound concentration was fit with a 4-parameter concentration response equation to calculate EC50 values.
Compounds of the disclosure were evaluated for IFN-β secretion in THP1 cell culture as described above.

Row | SMILES | % Effect at 30 μM relative to 2′3′-cGAMP
1 | Nc1nc2c(ncn2[C@@H]2O[C@@H]3COP(=O)(O)OC4[C@@H](COP(=O)(O)O[C@H]2C3F)O[C@@H](n2cnc3c(N)ncnc32)[C@H]4F)c(=O)[nH]1 (stereo partly drawn) [Example 26, 2-amino-9-[(2S,5R,7R,8S,10S,12aR,14R,15S,15aR,16R)-14-(6-amino-9H-purin-9-yl)-15,16-difluoro-2,10-dihydroxy-2,10-dioxidooctahydro-12H-5,8-methanofuro[3,2-l][1,3,6,9,11,2,10]pentaoxadiphosphacyclotetradecin-7-yl]-1,9-dihydro-6H-purin-6-one] | 150%
2 | Nc1nc2c(ncn2[C@@H]2O[C@@H]3COP(=O)(S)O[C@H]4[C@H](F)[C@H](n5cnc6c(N)ncnc65)O[C@@H]4COP(=O)(S)O[C@@H]2[C@H]3F)c(=O)[nH]1 (single isomer, unassigned) [Example 145] | 141%
3 | Nc1nc2c(ncn2[C@@H]2O[C@@H]3COP(=O)(O)OC4C(O)[C@H](n5cnc6c(N)ncnc65)O[C@@H]4COP(=O)(O)OC2C3F)c(=O)[nH]1 (stereo in doubt) [Example 5, (5R,7R,8S,12aR,14R,15R,15aS,16R)-7-(2-amino-6-oxo-1,6-dihydro-9H-purin-9-yl)-14-(6-amino-9H-purin-9-yl)-16-fluoro-15-hydroxyoctahydro-12H-5,8-methanofuro[3,2-l] [1,3,6,9,11,2,10]pentaoxadiphosphacyclotetradecine-2,10-diolate 2,10-dioxide] | 152%
4 | Nc1nc2c(ncn2[C@@H]2O[C@@H]3COP(=O)(O)OC4C(F)[C@H](n5cnc6c(N)ncnc65)O[C@@H]4COP(=O)(O)OC2C3F)c(=O)[nH]1 (stereo in doubt) [Example 23, 2-amino-9-[(5R,7R,8S,12aR,14R,15R,15aR,16R)-14-(6-amino-9H-purin-9-yl)-15,16-difluoro-2,10-dihydroxy-2,10-dioxidooctahydro-12H-5,8-methanofuro[3,2-l][1,3,6,9,11,2,10]pentaoxadiphosphacyclotetradecin-7-yl]-1,9-dihydro-6H-purin-6-one] | 125%

Same assay, conditions: IFN-β secretion in THP1 cell culture, 5 h; compound at 30 μM; percent activation relative to 2′3′-cGAMP

Row | SMILES | % Effect at 30 μM relative to 2′3′-cGAMP
5 | Nc1nc2c(ncn2[C@@H]2O[C@@H]3COP(O)(=S)O[C@H]4[C@H](F)[C@H](n5cnc6c(N)ncnc65)O[C@@H]4COP(O)(=S)O[C@@H]2[C@@H]3F)c(=O)[nH]1 (single isomer, unassigned) [Example 246] | 217%
6 | Nc1nc2c(ncn2[C@@H]2O[C@@H]3COP(=O)(S)OC4C(O)[C@H](n5cnc6c(N)ncnc65)O[C@@H]4COP(=O)(S)OC2C3)c(=O)[nH]1 (single isomer, unassigned) [Example 88] | 54%
7 | Nc1nc2c(ncn2[C@@H]2O[C@@H]3COP(=O)(O)O[C@H]4[C@H](F)[C@H](n5cnc6c(N)ncnc65)O[C@@H]4COP(O)(=S)O[C@@H]2[C@@H]3F)c(=O)[nH]1 (single isomer, unassigned) [Example 274] | 124%
8 | Nc1nc2c(ncn2[C@@H]2O[C@@H]3COP(O)(=S)O[C@H]4[C@H](F)[C@H](n5cnc6c(N)ncnc65)O[C@@H]4COP(O)(=S)O[C@@H]2[C@@H]3F)c(=O)[nH]1 (single isomer, unassigned) [Example 244] | 96%
9 | Nc1nc2c(nnn2[C@@H]2O[C@@H]3COP(=O)(S)O[C@H]4[C@H](F)[C@H](n5nnc6c(=O)[nH]cnc65)O[C@@H]4COP(=O)(S)O[C@@H]2[C@@H]3F)c(=O)[nH]1 (single isomer, unassigned) [Example 345] | 144%
10 | Nc1nc2c(ncn2[C@@H]2O[C@@H]3COP(=O)(S)OC4[C@@H](COP(=O)(S)O[C@H]2C3O)O[C@@H](n2cnc3c(N)ncnc32)[C@H]4F)c(=O)[nH]1 (single isomer, unassigned) [Example 82] | 111%
11 | Nc1nc2c(ncn2[C@@H]2O[C@@H]3COP(=O)(S)OC4[C@@H](COP(=O)(S)O[C@H]2C3)O[C@@H](n2nnc3c(N)ncnc32)[C@H]4F)c(=O)[nH]1 (stereo partly drawn) [Example 133, 2-amino-9-[(5S,7R,8R,12aR,14R,15S,15aR)-14-(7-amino-3H-[1,2,3]triazolo[4,5-d]pyrimidin-3-yl)-15-fluoro-2,10-dihydroxy-2,10-disulfidooctahydro-12H-5,8-methanofuro[3,2-l][1,3,6,9,11,2,10]pentaoxadiphosphacyclotetra-decin-7-yl]-1,9-dihydro-6H-purin-6-one] | 117%
12 | Nc1nc2c(ncn2[C@@H]2O[C@@H]3COP(=O)(S)OC4[C@@H](COP(=O)(S)O[C@H]2C3O)O[C@@H](n2cnc3c(N)ncnc32)[C@H]4F)c(=O)[nH]1 (single isomer, unassigned) [Example 83] | 133%
13 | Nc1nc2c(ncn2[C@@H]2O[C@@H]3COP(=O)(O)O[C@H]4[C@H](F)[C@H](n5nnc6c(=O)[nH]cnc65)O[C@@H]4COP(=O)(S)O[C@@H]2[C@@H]3F)c(=O)[nH]1 (single isomer, unassigned) [Example 346] | 182%
14 | Nc1nc2c(nnn2[C@@H]2O[C@@H]3COP(=O)(S)O[C@H]4[C@H](F)[C@H](n5nnc6c(=O)[nH]cnc65)O[C@@H]4COP(=O)(S)O[C@@H]2C3)c(=O)[nH]1 (single isomer, unassigned) [Example 340] | 306%
15 | Nc1nc2c(ncn2[C@@H]2O[C@@H]3COP(=O)(S)OC4[C@@H](COP(=O)(S)OC2C3O)O[C@@H](n2cnc3c(N)ncnc32)[C@H]4F)c(=O)[nH]1 (single isomer, unassigned) [Example 90] | 117%
16 | Nc1nc2c(nnn2[C@@H]2O[C@@H]3COP(=O)(S)O[C@H]4[C@H](F)[C@H](n5cnc6c(=O)[nH]cnc65)O[C@@H]4COP(=O)(S)O[C@@H]2[C@@H]3F)c(=O)[nH]1 (single isomer, unassigned) [Example 343] | 255%
17 | Nc1nc2c(nnn2[C@@H]2O[C@@H]3COP(=O)(S)O[C@H]4[C@H](F)[C@H](n5cnc6c(=O)[nH]cnc65)O[C@@H]4COP(=O)(S)O[C@@H]2[C@@H]3F)c(=O)[nH]1 (single isomer, unassigned) [Example 342] | 23%
18 | Nc1nc2c(nnn2[C@@H]2O[C@@H]3COP(=O)(S)O[C@H]4[C@H](F)[C@H](n5nnc6c(=O)[nH]cnc65)O[C@@H]4COP(=O)(S)O[C@@H]2C3)c(=O)[nH]1 (single isomer, unassigned) [Example 341] | 7%
19 | Nc1nc2c(ncn2[C@@H]2O[C@@H]3CO[P@@](=O)(S)OC4[C@@H](CO[P@@](=O)(S)O[C@H]2C3O)O[C@@H](n2cnc3c(N)ncnc32)[C@H]4F)c(=O)[nH]1 (single isomer, unassigned) [Example 89] | 119%
20 | Nc1nc2c(ncn2[C@@H]2S[C@@H]3COP(=O)(O)O[C@H]4[C@H](F)[C@H](n5cnc6c(=O)[nH]cnc65)O[C@@H]4COP(=O)(S)O[C@@H]2[C@@H]3O)c(=O)[nH]1 (stereo partly drawn) [Example 339, 2-amino-9-[(5R,7R,8R,12aR,14R,15S,15aR,16S)-15-fluoro-2,16-dihydroxy-2,10-dioxido-14-(6-oxo-1,6-dihydro-9H-purin-9-yl)-10-sulfanyloctahydro-12H-5,8-methanofuro[3,2-l][1,3,9,11,6,2,10]tetraoxathiadiphosphacyclotetradecin-7-yl]-1,9-dihydro-6H-purin-6-one] | 175%
21 | Nc1nc2c(ncn2[C@@H]2O[C@@H]3COP(=O)(S)OC4C5OC[C@]4(COP(=O)(S)OC2C3O)O[C@H]5n2cnc3c(N)ncnc32)c(=O)[nH]1 (single isomer, unassigned) [Example 95] | 118%
22 | Nc1nc2c(ncn2[C@@H]2O[C@@H]3COP(=O)(S)O[C@H]4[C@@H](O)[C@H](n5ccc6c(N)ncnc65)O[C@@H]4COP(=O)(S)O[C@@H]2C3)c(=O)[nH]1 (stereo partly drawn) [Example 79, 2-amino-9-[(5S,7R,8R,12aR,14R,15R,15aS)-14-(4-amino-7H-pyrrolo[2,3-d]pyrimidin-7-yl)-15-hydroxy-2,10-dioxido-2,10-disulfanyloctahydro-12H-5,8-methanofuro[3,2-l][1,3,6,9,11,2,10]pentaoxadiphosphacyclotetradecin-7-yl]-1,9-dihydro-6H-purin-6-one] | 145%
23 | Nc1nc2c(ncn2[C@@H]2O[C@@H]3COP(=O)(S)O[C@H]4[C@H](F)[C@H](n5cnc6c(N)ncnc65)O[C@@H]4COP(=O)(S)O[C@@H]2[C@H]3F)c(=O)[nH]1 (single isomer, unassigned) [Example 146] | 59%
24 | Nc1nc2c(nnn2[C@@H]2O[C@@H]3COP(=O)(S)O[C@H]4[C@H](F)[C@H](n5nnc6c(=O)[nH]cnc65)O[C@@H]4COP(=O)(S)O[C@@H]2[C@@H]3F)c(=O)[nH]1 (single isomer, unassigned) [Example 344] | 337%
